# In article PMC3524419 (ChemMedChem, 2012):
# pIC50: −log10 of the molar value.
# Target: T1, COX-1 (ovine) (Ovis aries, UniProt P05979)
# T1 sequence (P05979 25-600): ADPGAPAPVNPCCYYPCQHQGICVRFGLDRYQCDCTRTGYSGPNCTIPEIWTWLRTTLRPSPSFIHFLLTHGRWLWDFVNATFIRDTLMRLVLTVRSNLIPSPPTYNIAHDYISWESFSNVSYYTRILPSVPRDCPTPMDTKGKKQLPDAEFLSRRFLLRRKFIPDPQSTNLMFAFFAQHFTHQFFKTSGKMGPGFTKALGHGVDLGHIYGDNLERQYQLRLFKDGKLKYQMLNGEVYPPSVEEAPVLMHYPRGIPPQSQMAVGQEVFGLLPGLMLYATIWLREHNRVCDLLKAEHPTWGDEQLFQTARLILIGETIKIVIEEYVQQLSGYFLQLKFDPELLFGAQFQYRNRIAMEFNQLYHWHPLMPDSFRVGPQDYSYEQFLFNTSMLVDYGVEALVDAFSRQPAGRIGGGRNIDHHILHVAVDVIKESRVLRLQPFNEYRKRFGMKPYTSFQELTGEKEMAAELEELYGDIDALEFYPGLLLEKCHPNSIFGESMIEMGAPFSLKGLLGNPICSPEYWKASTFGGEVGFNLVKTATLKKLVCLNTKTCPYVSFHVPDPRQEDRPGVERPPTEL
# Assay: 12-HHT formation from arachidonic acid, HPLC
# Type: biochemical
row,pIC50,Structure (SMILES)
1,< 4.52,"CCCCCC(=O)Cc1cc(O)cc2c1C(=O)Oc1cc(O)c(C(=O)O)c(CCCCC)c1O2 [compound 2, physodic acid]"
2,< 4.52,"CCCCCc1cc(OC(=O)c2c(O)cc(OC)cc2CCCCC)cc(O)c1C(=O)O [compound 8, perlatolic acid]"
3,< 4.52,"CCCCCC(=O)Cc1cc(O)cc(O)c1C(=O)Oc1cc(O)c(C(=O)O)c(CCCCC)c1 [compound 9, olivetoric acid]"
